Test results taken from US20120028917A1, “Use Of N-(4-((3-(2-Amino-4-Pyrimidinyl)-2-Pyridinyl)Oxy)Phenyl)-4-(4-Methyl-2-Thienyl)-1-Phthalazinamine In The Treatment Of Antimitotic Agent Resistant Cancer” (Amgen Inc., priority 2009, published 2012).

What was measured:
Experiment in all cases: Antiproliferative assay (ArrayScan VTi)
Type in all cases: cell-based
SNU449 = details: Homo sapiens, SNU-449; SNU449* (Liver), paclitaxel-resistant; 24 h treatment, then 48 h without compound
Description: (§1) Tumor cells were seeded in a Packard View 96-well plate in 100 μL of appropriate complete media at a density of 3000 or 5000 cells/well depending on the cell line growth kinetics (broadly defined as slow vs. fast). All dilutions were performed using Biomek FX workstation. The next day cells were treated with AMG 900 (11-point dose range 0.156 to 0.0003 μM) with a final DMSO concentration of 0.12% in media. After 24 hours, the media containing compound was removed and the cells were washed with complete media. The cells were then incubated in 100 μL of fresh complete media (without compound) for 48 hours. After 48 hours, the cells were fixed by adding 100 μL of fixation buffer to 100 μL of complete media. The cells were incubated at room temperature for 10 minutes. The fixation buffer was aspirated and the cells were then permeabilized in 100 μL wash buffer for 30 minutes at room temperature followed by the addition of 100 μL of DNA stain buffer and incubated at room temperature for 30 minutes in the dark. Next, the cells were washed with 100 μL of wash buffer and stored in 100 μL 1×PBS at 4 degrees Celsius until analysis. Cellular data was attained by scanning the 96-well plates on an ArrayScan VTi imaging system (Cellomics). Quantification of individual cell nuclear area and intensity was performed based on Hoechst 33342 DNA dye fluorescence. A threshold on the nuclear area based on the DMSO-treated control well was set to quantify the number of normal size nuclei from nuclear debris and polyploidy cells. This threshold value was applied to enumerate the number of normal nuclei in six image fields/well using a magnification of 10×. The dose-concentration curves and EC50 values were calculated using a 4-parameter equation.

HCT15 = details: Homo sapiens, HCT-15; HCT15* (Colon), paclitaxel-resistant; 24 h treatment, then 48 h without compound
Description: as §1

HOP-92 = details: Homo sapiens; HOP-92 (Lung); 24 h treatment, then 48 h without compound
Description: as §1

HCT 116_JH_p21−/− = details: Homo sapiens; HCT 116_JH_p21−/− (Colon); 24 h treatment, then 48 h without compound
Description: as §1

A498 = details: Homo sapiens; A498 (Kidney); 24 h treatment, then 48 h without compound
Description: as §1

CAKI-1 = details: Homo sapiens; CAKI-1 (Kidney); 24 h treatment, then 48 h without compound
Description: as §1

BT549 = details: Homo sapiens, BT-549; BT549 (Breast); 24 h treatment, then 48 h without compound
Description: as §1

769P = details: Homo sapiens; 769P* (Kidney), paclitaxel-resistant; 24 h treatment, then 48 h without compound
Description: as §1

SW480 = details: Homo sapiens; SW480 (Colon); 24 h treatment, then 48 h without compound
Description: as §1

SK-MEL-2 = details: Homo sapiens; SK-MEL-2 (Skin); 24 h treatment, then 48 h without compound
Description: as §1

CAL51 = details: Homo sapiens, CAL-51; CAL51 (Breast); 24 h treatment, then 48 h without compound
Description: as §1

SW620 = details: Homo sapiens, SW-620; SW620 (Colon); 24 h treatment, then 48 h without compound
Description: as §1

HCT 116_JH_p21+/+ = details: Homo sapiens; HCT 116_JH_p21+/+ (Colon); 24 h treatment, then 48 h without compound
Description: as §1

SK-OV-3 = details: Homo sapiens; SK-OV-3 (Ovarian); 24 h treatment, then 48 h without compound
Description: as §1

NCI-H460 = details: Homo sapiens; NCI-H460 (Lung); 24 h treatment, then 48 h without compound
Description: as §1

T47D = details: Homo sapiens; T47D (Breast); 24 h treatment, then 48 h without compound
Description: as §1

MCF7-p53− = details: Homo sapiens; MCF7-p53− (Breast); 24 h treatment, then 48 h without compound
Description: as §1

MCF7-p53+ = details: Homo sapiens; MCF7-p53+ (Breast); 24 h treatment, then 48 h without compound
Description: as §1

DU145 = details: Homo sapiens, DU-145; DU145 (Prostate); 24 h treatment, then 48 h without compound
Description: as §1

A549 = details: Homo sapiens; A549 (Lung); 24 h treatment, then 48 h without compound
Description: as §1

SK-HEP-1 = details: Homo sapiens, SK-HEP1; SK-HEP-1 (Liver); 24 h treatment, then 48 h without compound
Description: as §1

MDA-MB-231 = details: Homo sapiens; MDA-MB-231 (Breast); 24 h treatment, then 48 h without compound
Description: as §1

EC50 (SNU449): 2 nM | EC50 (HCT15): 2 nM | EC50 (HCT 116_JH_p21−/−): 1 nM | EC50 (BT549): 4 nM | EC50 (SW480): 2 nM | EC50 (SK-MEL-2): 2 nM | EC50 (SW620): 2 nM | EC50 (HCT 116_JH_p21+/+): 1 nM | EC50 (SK-OV-3): 2 nM | EC50 (NCI-H460): 1 nM | EC50 (T47D): 5 nM | EC50 (MCF7-p53−): 3 nM | EC50 (MCF7-p53+): 1 nM | EC50 (DU145): 2 nM | EC50 (A549): 1 nM | EC50 (SK-HEP-1): 1 nM | EC50 (MDA-MB-231): 2 nM
SMILES: Cc1csc(-c2nnc(Nc3ccc(Oc4ncccc4-c4ccnc(N)n4)cc3)c3ccccc23)c1 [AMG 900, N-(4-((3-(2-amino-4-pyrimidinyl)-2-pyridinyl)oxy)phenyl)-4-(4-methyl-2-thienyl)-1-phthalazinamine]
EC50 (HOP-92): 2 nM | EC50 (A498): 1 nM | EC50 (CAKI-1): 1 nM | EC50 (769P): 2 nM | EC50 (CAL51): 2 nM
